Measured values from patent US20070281992A1, “COMBINATION OF GYRASE B INHIBITORS AND PROTEIN SYNTHESIS INHIBITORS AND USES THEREOF” (priority 2006, published 2007).
Like-named read-outs stand apart in the source and are kept apart here.

Key:
[1] = system: Enterococcus faecalis (ATCC 29212); assay: MIC assay, quality control strain E. faecalis ATCC 29212; type: cell-based
Protocol: (§1) Antibiotics: novobiocin, tetracycline, minocycline, oxacillin, and vancomycin were all purchased from Sigma-Aldrich. Linezolid was obtained from Pfizer, Inc. Novobiocin/tetracycline and novobiocin/minocycline were tested in a 2.5:1 ratio to mimic the serum levels. (Vavra, J. J., 1967, Development of resistance to novobiocin, tetracycline, and novobiocin-tetracycline combinations in Staphylococcus aureus populations, J. Bacteriol 93(3):801). Compounds were tested across a concentration range consisting of 11 two-fold serial dilutions of test agent.
(§2) Stock solutions were prepared in sterile deionized water; novobiocin stock concentration was 1600 μg/mL and all other drugs stock solutions were prepared at 640 μg/mL. The stock solutions were allowed to sit at room temperature for one hour to auto-sterilize prior to use in the test. All compounds were in solution in water. The control agent was vancomycin hydrochloride, Sigma Chemical Lot # 015K0825.
(§3) The test organisms for the assay were 52 MSSA, 52 MRSA, 8 VISA, 7 VISE, and 3 LRSA isolates. Quality control strains included Staphylococcus aureus 0100 (ATCC 29213) and Enterococcus faecalis (ATCC 29212).
(§4) The MIC assay was performed according to published NCCLS guidelines. (National Committee for Clinical Laboratory Standards, Methods for Dilution Antimicrobial Susceptibility Tests for Bacteria that Grow Aerobically; Approved Standard-Sixth Edition, NCCLS Document M7-A6 [ISBN 1-56238-486-4], NCCLS, 940 West Valley Road, Suite 1400, Wayne, Pa. 19087-1898 USA, 2003). The test medium was Mueller Hinton II Broth for all organisms.

[2] = system: Vancomycin-intermediate Staphylococcus aureus Isolates; assay: MIC assay (NCCLS broth dilution), VISA isolates; type: cell-based; details: for MIC Range / MIC50: 2 VISA isolates, combinations at 2.5:1, given as NB/partner; for MIC / MIC50: Staphylococcus aureus; for MIC: read-out: Minimal Inhibitory Concentration
Protocol: as §1, §2, §3, §4

[3] = system: Linezolid-Resistant Staphylococcus aureus Isolates; assay: MIC assay (NCCLS broth dilution), LRSA isolates; type: cell-based; details: for MIC / MIC50: Staphylococcus aureus; for MIC50 / MIC Range: 3 LRSA isolates, combinations at 2.5:1
Protocol: as §1, §2, §3, §4

[4] = system: Staphylococcus aureus 0100 (ATCC 29213); assay: MIC assay, quality control strain S. aureus ATCC 29213; type: cell-based
Protocol: as §1, §2, §3, §4

[5] = system: Enterococcus faecalis (ATCC 29212); details: E. faecalis ATCC 29212; accepted quality control range; cited from earlier work
[6] = system: Staphylococcus aureus 0100 (ATCC 29213); details: S. aureus ATCC 29213; accepted quality control range; cited from earlier work
[7] = system: Unconfirmed Vancomycin-intermediate Staphylococcus epidermidis Isolates; assay: MIC assay (NCCLS broth dilution), unconfirmed VISE isolates; type: cell-based; details: for MIC Range / MIC50: 3 unconfirmed VISE isolates, combinations at 2.5:1; for MIC / MIC50: Staphylococcus epidermidis
Protocol: as §1, §2, §3, §4

[8] = ATCC29212, E. faecalis ATCC 29212, repeat runs 22FEB06-09MAR06, combinations at 2.5:1, read-out: Minimal Inhibitory Concentration, quality control
[9] = LRSA isolate 1651, 24FEB06, read-out: Minimal Inhibitory Concentration
[10] = LRSA isolate 1652, 24FEB06, read-out: Minimal Inhibitory Concentration
[11] = LRSA isolate 1725, 24FEB06, read-out: Minimal Inhibitory Concentration
[12] = ATCC29213, S. aureus ATCC 29213, repeat runs 22FEB06-09MAR06, combinations at 2.5:1, read-out: Minimal Inhibitory Concentration, quality control
[13] = Unconfirmed VISE isolate 2024, 09MAR06, read-out: Minimal Inhibitory Concentration
[14] = Unconfirmed VISE isolate 2025, 09MAR06, read-out: Minimal Inhibitory Concentration
[15] = Unconfirmed VISE isolate 2026, 03MAR06, read-out: Minimal Inhibitory Concentration

| MIC [1, 8] | MIC ([2]; VISA isolate 2012, 03MAR06) | MIC ([2]; VISA isolate 2018, 03MAR06) | MIC50 [2] | MIC [3, 9] | MIC [3, 10] | MIC [3, 11] | MIC50 [3] | MIC [4, 12] | MIC Range [7] | MIC [7, 13] | MIC [7, 14] | MIC [7, 15] | MIC50 [7] | Compound | MIC Range [2] | CLSI QC Range (MIC) [5] | CLSI QC Range (MIC) [6] | MIC Range [3] | also measured |
| --- | --- | --- | --- | --- | --- | --- | --- | --- | --- | --- | --- | --- | --- | --- | --- | --- | --- | --- | --- |
| 2 µg/mL | 1 µg/mL | 2 µg/mL | 1 µg/mL | 16 µg/mL | 32 µg/mL | 32 µg/mL | 32 µg/mL | 4 µg/mL | 1 to 2 µg/mL | 1 µg/mL | 1 µg/mL | 2 µg/mL | 1 µg/mL | CC(=O)NC[C@H]1CN(c2ccc(N3CCOCC3)c(F)c2)C(=O)O1 [LZD, linezolid] | 1 to 2 µg/mL | 1 to 4 µg/mL | 1 to 4 µg/mL | – | – |
| 2 µg/mL | 0.25 µg/mL | 0.06 µg/mL | 0.06 µg/mL | 0.12 µg/mL | 0.12 µg/mL | 2 µg/mL | 0.12 µg/mL | 0.12 µg/mL | 0.12 to 0.25 µg/mL | 0.25 µg/mL | 0.12 µg/mL | 0.25 µg/mL | 0.25 µg/mL | CN(C)c1ccc(O)c2c1C[C@H]1C[C@H]3[C@H](N(C)C)C(O)=C(C(N)=O)C(=O)[C@@]3(O)C(O)=C1C2=O [MI, minocycline] | .06 to 25 µg/mL | – | – | 0.12 to 2 µg/mL | – |
| 5 µg/mL | 0.08 µg/mL | ≤ 0.04 µg/mL | ≤ 0.04 µg/mL | 0.15 µg/mL | 0.15 µg/mL | 0.15 µg/mL | 0.15 µg/mL | – | ≦.04-5 μg/ml | 5 µg/mL | 0.312 µg/mL | ≤ 0.04 µg/mL | 0.312 µg/mL | CO[C@@H]1[C@@H](OC(N)=O)[C@@H](O)[C@H](Oc2ccc3c(O)c(NC(=O)c4ccc(O)c(CC=C(C)C)c4)c(=O)oc3c2C)OC1(C)C [NB, novobiocin] | ≦.04-.08 μg/ml | – | – | 0.15 µg/mL | – |

| Compound | MIC [1, 8] | MIC ([2]; VISA isolate 2012, 03MAR06) | MIC ([2]; VISA isolate 2018, 03MAR06) | MIC50 [2] | MIC [3, 9] | MIC [3, 10] | MIC [3, 11] | MIC50 [3] | MIC [4, 12] | MIC Range [7] | MIC [7, 13] | MIC [7, 14] | MIC [7, 15] | MIC50 [7] | MIC Range [2] | CLSI QC Range (MIC) [5] | CLSI QC Range (MIC) [6] | MIC Range [3] | also measured |
| --- | --- | --- | --- | --- | --- | --- | --- | --- | --- | --- | --- | --- | --- | --- | --- | --- | --- | --- | --- |
| Cc1onc(-c2ccccc2)c1C(=O)N[C@@H]1C(=O)N2[C@@H]1SC(C)(C)[C@@H]2C(=O)O [OX, oxacillin] | 8 µg/mL | > 32 µg/mL | > 32 µg/mL | > 32 µg/mL | > 32 µg/mL | > 32 µg/mL | > 32 µg/mL | > 32 µg/mL | – | – | > 32 µg/mL | 4 µg/mL | 32 µg/mL | 32 µg/mL | >32 µg/mL | 8 to 32 µg/mL | 0.12 to 0.5 µg/mL | >32 µg/mL | – |
| CN(C)[C@@H]1C(O)=C(C(N)=O)C(=O)[C@@]2(O)C(O)=C3C(=O)c4c(O)cccc4[C@@](C)(O)[C@H]3C[C@@H]12 [TE, tetracycline] | 16 µg/mL | 2 µg/mL | 0.25 µg/mL | 0.25 µg/mL | 0.5 µg/mL | 0.5 µg/mL | > 16 µg/mL | 0.5 µg/mL | 0.5 µg/mL | 0.5 to 2 µg/mL | 2 µg/mL | 0.5 µg/mL | 2 µg/mL | 2 µg/mL | .25 to 2 µg/mL | – | – | – | – |
| CN[C@H](CC(C)C)C(=O)N[C@H]1C(=O)N[C@@H](CC(N)=O)C(=O)N[C@H]2C(=O)N[C@H]3C(=O)N[C@H](C(=O)N[C@H](C(=O)O)c4cc(O)cc(O)c4-c4cc3ccc4O)[C@H](O)c3ccc(c(Cl)c3)Oc3cc2cc(c3O[C@@H]2O[C@H](CO)[C@@H](O)[C@H](O)[C@H]2O[C@H]2C[C@](C)(N)[C@H](O)[C@H](C)O2)Oc2ccc(cc2Cl)[C@H]1O [VA, vancomycin] | – | – | – | – | – | – | – | – | – | 1 to 4 µg/mL | – | – | – | – | 8 µg/mL | 1 to 4 µg/mL | 0.5 to 2 µg/mL | 0.5 to 1 µg/mL | MIC ([1]; ATCC29212, read-out: Minimal Inhibitory Concentration, quality control, E. faecalis ATCC 29212, repeat runs 22FEB06-09MAR06, combinations at 2.5:1): 2 µg/mL; MIC [2]: 8 µg/mL; Minimal Inhibitory Concentration ([2]; VISA isolate 2018, 03MAR06): 8 µg/mL; MIC ([3]; read-out: Minimal Inhibitory Concentration, LRSA isolate 1651, 24FEB06): 0.5 µg/mL; MIC ([3]; read-out: Minimal Inhibitory Concentration, LRSA isolate 1652, 24FEB06): 1 µg/mL; MIC ([3]; read-out: Minimal Inhibitory Concentration, LRSA isolate 1725, 24FEB06): 1 µg/mL; MIC ([4]; ATCC29213, read-out: Minimal Inhibitory Concentration, quality control, S. aureus ATCC 29213, repeat runs 22FEB06-09MAR06, combinations at 2.5:1): 0.5 µg/mL; MIC ([7]; read-out: Minimal Inhibitory Concentration, Unconfirmed VISE isolate 2024, 09MAR06): 2 µg/mL; MIC ([7]; read-out: Minimal Inhibitory Concentration, Unconfirmed VISE isolate 2025, 09MAR06): 4 µg/mL; MIC ([7]; read-out: Minimal Inhibitory Concentration, Unconfirmed VISE isolate 2026, 03MAR06): 4 µg/mL |
